Measurements published in PMC11912224, “A general approach for activity-based protein profiling of oxidoreductases with redox-differentiated diarylhalonium warheads” (Chemical Science, 2025).

What was measured:
CHO (choline oxidase) = molecular target: T1, CHO (choline oxidase) (Glutamicibacter nicotianae, UniProt A0ABQ0RMK5); assay: activity-based labelling, in-gel fluorescence; assay type: binding; conditions: covalent; 30 uM probe, 1 h
T1 construct: gene ANI01nite_22550; recombinant; FAD enzyme; details not in main text
T1 sequence (A0ABQ0RMK5 1-523): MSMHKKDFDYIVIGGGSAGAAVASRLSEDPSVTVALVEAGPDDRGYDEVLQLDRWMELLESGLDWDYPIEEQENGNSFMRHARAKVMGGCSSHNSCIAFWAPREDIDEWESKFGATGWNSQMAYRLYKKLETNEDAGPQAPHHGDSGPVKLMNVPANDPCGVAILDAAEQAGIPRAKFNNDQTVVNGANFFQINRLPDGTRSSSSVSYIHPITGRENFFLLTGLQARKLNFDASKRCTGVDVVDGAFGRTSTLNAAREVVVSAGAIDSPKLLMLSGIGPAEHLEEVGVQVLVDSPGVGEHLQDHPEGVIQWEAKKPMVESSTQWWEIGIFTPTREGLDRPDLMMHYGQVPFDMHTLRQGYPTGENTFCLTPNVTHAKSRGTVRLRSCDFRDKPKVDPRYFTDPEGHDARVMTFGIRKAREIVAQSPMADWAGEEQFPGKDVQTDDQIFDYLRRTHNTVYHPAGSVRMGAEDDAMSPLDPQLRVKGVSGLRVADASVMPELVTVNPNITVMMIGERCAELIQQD

heme oxygenase 2 (HMOX2) = molecular target: T2, heme oxygenase 2 (HMOX2) (Mus musculus, UniProt O70252); assay: covalent labelling, streptavidin enrichment, LC-MS/MS; conditions: 30 uM probe, 1 h, mouse liver pieces
T2 construct: native, in intact mouse liver pieces
T2 sequence (O70252 2-315): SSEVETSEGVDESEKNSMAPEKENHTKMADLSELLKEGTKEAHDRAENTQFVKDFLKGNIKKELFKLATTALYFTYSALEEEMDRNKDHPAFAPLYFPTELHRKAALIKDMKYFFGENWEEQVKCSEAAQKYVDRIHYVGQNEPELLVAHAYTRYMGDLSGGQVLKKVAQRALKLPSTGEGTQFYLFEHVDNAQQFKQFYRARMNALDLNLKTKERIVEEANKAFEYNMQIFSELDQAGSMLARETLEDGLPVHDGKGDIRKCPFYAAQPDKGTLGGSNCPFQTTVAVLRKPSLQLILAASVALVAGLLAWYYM

[N-]=[N+]=NCCCCCCCCCCNC(=O)c1ccc([I+]c2ccccc2)cc1 [3aa, diphenyliodonium probe 3aa]
activity-based labelling, in-gel fluorescence (CHO (choline oxidase)): led to the labeling of several of the tested oxidoreductases
covalent labelling, streptavidin enrichment, LC-MS/MS (heme oxygenase 2 (HMOX2)): HMOX2 was significantly enriched by diaryliodonium probes 3aa, 3ca, and 3da
